The subject of series [1] is Trypanosoma brucei rhodesiense (STIB 900 strain). Nature of the series: Alamar Blue assay against Trypanosoma brucei rhodesiense grown in axenic medium. To be noted: In vitro inhibition, read-out: T.b.rhod. It counts as cell-based. On the procedure:
(§1) Tests were done in triplicate.
Trypanosoma brucei rhodesiense (STIB 900) were grown in axenic medium as described by Baltz et al. (1985) The samples were tested using the Alamar Blue assay protocol (Baltz T et al. EMBO J 1985; 4:1273-1277) to determine the 50% inhibitory concentration (IC50). […] Melarsoprol (Arsobal®, Sanofi-Aventis, Switzerland) was used as a reference drug (IC50= 0.03 ± 0.01 µM). Its purity was over 95 %, as was certified by the supplier. The IC50 values were calculated by using Softmax Pro software (Molecular Devices Cooperation, Sunnyvale, CA).
(The colour change of resazurin is a common sign of viable cells or microbes.)

The test system of series [2] is Plasmodium falciparum. Put plainly: 3H-hypoxanthine incorporation assay against Plasmodium falciparum. It counts as cell-based. The note with it: In vitro inhibition, read-out: P.falc NF5. On the procedure: as §1
IC50 values were calculated by linear interpolation.

The test system of series [3] is Trypanosoma cruzi trypomastigote forms (Tulahuen strain). Nature of the series: Intracellular Trypanosoma cruzi assay in L6-cells, beta-galactosidase/CPRG readout. It counts as cell-based. The note with it: In vitro inhibition, read-out: T.cruzi. The protocol:
as §1
Trypanosoma cruzi trypomastigote forms (Tulahuen strain C2C4 containing β-galactosidase (Lac Z) gene) were cultured as described by Buckner et al. (Buckner FS et al. Antimicrob Agents Ch1996; 40: 2592-2597) in rat myoblast cells (L6-cells). […] After incubation, the substrate chlorophenyl red β-D-galactopyranoside agent CPRG/Nonident was added to all wells and a color change was developed within 2 to 6 h. The plates were read photometrically at 540 nm (Molecular Devices). Data were evaluated and IC50 values calculated using Softmax Pro software (Molecular Devices).

Series [4] concerns Axenically grown Leishmania donovani amastigotes (strain MHOM/ET/67/L82). Nature of the series: Axenic Leishmania donovani amastigote resazurin assay. It counts as cell-based. To be noted: In vitro inhibition, read-out: L.don. ax. The protocol: as §1
Axenically grown Leishmania donovani amastigotes (strain MHOM/ET/67/L82) were grown and tests were done as previously described using the resazurin assay (Räz B et al. Acta Tropica 1997, 68:139-147). The plates were developed for 2-4 hours and read on a Spectramax Gemini XS micro plate fluorometer (Molecular Devices Cooperation) using an excitation wavelength of 536 nm and emission wavelength of 588 nm. Fluorescence development was measured and expressed as percentage of the negative control. […] Data were transferred to the graphic programme Softmax Pro (Molecular Devices), with which IC50 values were calculated.

Series [5] can be described thus: Cytotoxicity assay on L6-cells (Alamar Blue). The note with it: rat, Cytotox L6, Cytotoxicity against rat myoblast cells (L6).
Description: Tests were done in triplicate. IC50 values against the parasites as well as cytotoxic effects against rat myoblast (L6-cells) were determined by serial dilution and repeated twice.
After 68 h of incubation under humidified 5% CO2 atmosphere, 10 µl of the Alamar blue marker was added to all wells. The plates were incubated for an additional 2 h. […] The IC50S were calculated by Softmax Pro software (Molecular Devices Cooperation, Sunnyvale, CA). […] Cytotoxicity was measured against rat myoblast cells (Cytotox L6).

Non-standard residues stand in square brackets, D forms with d. Residues, ends and D or L forms follow the SMILES beside them. *: point of attachment. Hexenoyl(2E,4S-Me) = CC[C@H](C)/C=C/C(=O)*; Leu(3R-OH) = CC(C)[C@@H](O)[C@H](N)C(=O)O; NH((S)CH(Me)CH2NMe2) = C[C@@H](CN(C)C)N*; NH(1-CH2NMe2-cBu) = CN(C)CC1(N*)CCC1; Gly(octyl) = CCCCCCCC[C@H](N)C(=O)O; Piperazinyl(4-Me) = CN1CCN(*)CC1; X22 = CC1CC(C)CN(CCN*)C1; Hexanoyl = CCCCCC(=O)*; Aib = CC(C)(N)C(=O)O; βAla = NCCC(=O)O

For `CCCCCCCC[C@H](NC(=O)[C@@H]1CCCN1C(=O)/C=C/[C@@H](C)CC)C(=O)N[C@H](C(=O)NC(C)(C)C(=O)N[C@@H](CC(C)C)C(=O)N[C@@H](CC(C)C)C(=O)NC(C)(C)C(=O)NC(C)(C)C(=O)NCCC(=O)N1CCN(C)CC1)[C@H](O)C(C)C` [Compound 5571, (2S)-N-[(1S,2R)-2-hydroxy-3-methyl-1-[(1-methyl-1-{[(1S)-3-methyl-1-{[(1S)-3-methyl-1-({1-methyl-1-[(1-methyl-1-{[3-(4-methylpiperazin-1-yl)-3-oxopropyl]carbamoyl}ethyl)carbamoyl]ethyl}carbamoyl)butyl]carbamoyl}butyl]carbamoyl}ethyl)carbamoyl]butyl]-2-{[(2S)-1-[(2E,4S)-4-methylhex-2-enoyl]pyrrolidin-2-yl]formamido}decanamide] ({Hexenoyl(2E,4S-Me)}-P[Gly(octyl)][Leu(3R-OH)][Aib]LL[Aib][Aib][βAla]-{Piperazinyl(4-Me)}), the IC50 in series [1] is 0.214 µM; in series [2] it was 0.125 µM; in series [3], 2.93 µM; in series [4], 0.398 µM. The compound further displayed an IC50 at 70 h in series [5] of 2.63 µM.

On to `CCCCCCCC[C@H](NC(=O)[C@@H]1CCCN1C(=O)CCCCC)C(=O)N[C@H](C(=O)NC(C)(C)C(=O)NC(C)(C)C(=O)NCCC(=O)N[C@@H](C)CN(C)C)[C@@H](C)O` [Compound 5594, (2S)-N-[(1S)-1-[[(1S,2R)-1-[[2-[[2-[[3-[[(1S)-2-(dimethylamino)-1-methyl-ethyl]amino]-3-oxo-propyl]amino]-1,1-dimethyl-2-oxo-ethyl]amino]-1,1-dimethyl-2-oxo-ethyl]carbamoyl]-2-hydroxy-propyl]carbamoyl]nonyl]-1-hexanoyl-pyrrolidine-2-carboxamide] (Hexanoyl-P[Gly(octyl)]T[Aib][Aib][βAla]-{NH((S)CH(Me)CH2NMe2)}), for which the IC50 in series [1] was 2.24 µM; in series [2], 2.32 µM; in series [3], 8.61 µM; in series [4] it was 0.571 µM. Moreover, in series [5], the IC50 at 70 h was 6.02 µM.

As for `CCCCCCCC[C@H](NC(=O)[C@@H]1CCCN1C(=O)CCCCC)C(=O)N[C@@H](CC(C)C)C(=O)NC(C)(C)C(=O)N[C@@H](CC(C)C)C(=O)N[C@@H](CC(C)C)C(=O)NC(C)(C)C(=O)NC(C)(C)C(=O)NCCC(=O)NCCN1CC(C)CC(C)C1` (stereo partly drawn) [Compound 5885, (2S)-N-[(1S)-1-[(1-{[(1S)-1-{[(1S)-1-{[1-({1-[(2-{[2-(3,5-dimethylpiperidin-1-yl)ethyl]carbamoyl}ethyl)carbamoyl]-1-methylethyl}carbamoyl)-1-methylethyl]carbamoyl}-3-methylbutyl]carbamoyl}-3-methylbutyl]carbamoyl}-1-methylethyl)carbamoyl]-3-methylbutyl]-2-{[(2S)-1-hexanoylpyrrolidin-2-yl]formamido}decanamide] (Hexanoyl-P[Gly(octyl)]L[Aib]LL[Aib][Aib][βAla]-X22), the IC50 in series [1] came out at 0.0002 µM; in series [2] it was 0.0009 µM; in series [3] it was 42.6 µM; in series [4], 46.8 µM. Besides, in series [5], the IC50 at 70 h turned out to be 0.0456 µM.

`CCCCCCCC[C@H](NC(=O)[C@@H]1CCCN1C(=O)CCCCC)C(=O)N[C@@H](CC(C)C)C(=O)NC(C)(C)C(=O)N[C@@H](CC(C)C)C(=O)N[C@@H](CC(C)C)C(=O)NC(C)(C)C(=O)NC(C)(C)C(=O)NCCC(=O)NC1(CN(C)C)CCC1` [Compound 5882, (2S)-N-[(1S)-1-[(1-{[(1S)-1-{[(1S)-1-({1-[(1-{[2-({1-[(dimethylamino)methyl]cyclobutyl}carbamoyl)ethyl]carbamoyl}-1-methylethyl)carbamoyl]-1-methylethyl}carbamoyl)-3-methylbutyl]carbamoyl}-3-methylbutyl]carbamoyl}-1-methylethyl)carbamoyl]-3-methylbutyl]-2-{[(2S)-1-hexanoylpyrrolidin-2-yl]formamido}decanamide] (Hexanoyl-P[Gly(octyl)]L[Aib]LL[Aib][Aib][βAla]-{NH(1-CH2NMe2-cBu)}): the IC50 in series [1] worked out at 20.5 µM; in series [2], 0.0009 µM; in series [3] it was 42.6 µM; in series [4], 46.8 µM. Besides, the IC50 at 70 h in series [5] is 0.0441 µM.

The values are drawn from patent publication EP3345917A1, “ANTIPROTOZOAL COMPOUNDS” (Bacoba AG, priority 2017, dated 2018).
